Where a name gives a salt, the structure may show the parent alone.
Assays:
[1] = system: bacterial strains that express KPC β-lactamases; assay: Synergy MIC / standard BLI potentiation MIC assay, strains expressing KPC β-lactamases; type: cell-based; details: for at least one KPC strain and/or a better spectrum of activity against KPC strains than Avibactam; in the presence of a β-lactam
Description: (§1) Unless otherwise indicated, the activity of the BLI compounds can be described by the MIC value obtained from a Synergy MIC assay or a BLI potentiation assay (e.g as described herein), both of which are run in the presence of a β-lactam.
(§2) The experimental protocol was performed according to Clinical and Laboratory Standards Institute (CLSI) guidelines with modifications as described below (CLSI guidelines can be derived from the CLSI document M07-A9 published in January 2012: “Methods for Dilution Antimicrobial Susceptibility Tests for Bacteria That Grow Aerobically; Approved Standard-Ninth Edition”).
(§3) To prepare for MIC testing, frozen glycerol stocks of clinical isolates (Klebsiella pneumoniae, Eschericia coli, Enterobacter spp, Citrobacter spp, or Pseudomonas aeruginosa) were used to streak for isolated colonies on rich, non-selective, tryptic soy agar containing 5% sheep's blood (TSAB). Frozen glycerol stocks of laboratory engineered, isogenic E. coli strains, which contain cloned β-lactamase expressing plasmids were used to streak for isolated colonies on rich, selective LB agar supplemented with 25 μg/mL tetracycline to maintain the plasmid. All strains were incubated at 37° C. for 18-24 hrs.
(§4) On the day of testing, primary cultures were started by scraping off 5-10 colonies from the TSAB plates containing clinical strains or the tetracycline supplemented LB plates containing engineered strains. The clinical strain material was suspended in ˜5 mL of cation adjusted Mueller Hinton Broth (CAMHB) in 14 mL culture tubes. The engineered strain material was suspended in CAMHB (supplemented with 25 μg/mL tetracycline) in 14 mL culture tubes. All strains were incubated at 37° C. with aeration (200 rpm) for ˜2 hrs until the optical density at 600 nm (OD600) was ≧0.1.
(§5) The two compound components of the assay were each diluted in CAMHB and added to the 96-well broth microdilution assay plates. 50 μL of the β-lactam was added to each well of the assay plate in 2-fold dilutions with final concentrations ranging from 128 to 0.13 μg/mL. 25 μL of the BLI compound was added to all wells in the broth microdilution plates at a final concentration of 4 μg/mL. Inoculum cultures were prepared by standardizing the primary cultures to OD600=0.1 and then adding 20 μL of the adjusted primary culture per 1 mL CAMHB for clinical strains or CAMHB (supplemented with tetracycline at 100 μg/mL) for engineered strains, so that the final inoculum density was ˜10^5 colony forming units per milliliter. Diluted inoculum cultures were used to inoculate 25 μl, per well in 96-well broth microdilution assay plates. The final volume of each well was 100 μL and contained a β-lactam at different concentrations, a BLIcompound at 4 μg/mL concentration, the bacterial culture at an OD600 of approximately 0.001 and when necessary tetracycline at 25 μg/mL.
(§6) Plates were incubated for 18-20 hours at 37° C. with aeration (200 rpm). Following incubation, growth was confirmed visually placing plates over a viewing apparatus (stand with a mirror underneath) and then OD600 was measured using a SpectraMax 340PC384 plate reader (Molecular Devices, Sunnyvale, Calif.). Growth was defined as turbidity that could be detected with the naked eye or achieving minimum OD600 of 0.1. MIC values were defined as the lowest concentration producing no visible turbidity.
(§7) The synergy MIC (sMIC) assay determines the concentration of the BLI required to potentiate the activity of a fixed concentration of a β-lactam antibiotic against β-lactamase producing bacterial strains. The experimental protocol was performed according to Clinical and Laboratory Standards Institute (CLSI) guidelines with modifications as described below (CLSI guidelines can be derived from the CLSI document M07-A9 published in January 2012: “Methods for Dilution Antimicrobial Susceptibility Tests for Bacteria That Grow Aerobically; Approved Standard-Ninth Edition”). […]

[2] = system: bacterial strains that express the class D cephalosporinase OXA-15; assay: Synergy MIC / standard BLI potentiation MIC assay, strains expressing OXA-15;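 also: more active means a lower MIC or sMIC than Avibactam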; type: cell-based, E. coli; details: in the presence of a β-lactam; comparator Avibactam (CCC)
Description: as §1, §2, §3, §4, §5, §6, §7

| SMILES | activity against bacterial strains that express KPC β-lactamase compared with Avibactam [1] | activity against bacterial strains that express OXA-15 β-lactamase compared with Avibactam [2] |
| --- | --- | --- |
| O=C1N2C[C@@H](CC[C@H]2c2nnco2)N1OS(=O)(=O)O [Compound 701, (2S,5R)-2-(1,3,4-oxadiazol-2-yl)-7-oxo-1,6-diazabicyclo[3.2.1]octan-6-yl hydrogen sulfate] | more active than Avibactam | more active than Avibactam |
| NCc1nnc([C@@H]2CC[C@@H]3CN2C(=O)N3OS(=O)(=O)O)o1 [Compound 702, (2S,5R)-2-(5-(aminomethyl)-1,3,4-oxadiazol-2-yl)-7-oxo-1,6-diazabicyclo[3.2.1]octan-6-yl hydrogen sulfate] | more active than Avibactam | more active than Avibactam |
| NCCc1nnc([C@@H]2CC[C@@H]3CN2C(=O)N3OS(=O)(=O)O)o1 [Compound 703, (2S,5R)-2-(5-(2-aminoethyl)-1,3,4-oxadiazol-2-yl)-7-oxo-1,6-diazabicyclo[3.2.1]octan-6-yl hydrogen sulfate] | more active than Avibactam | more active than Avibactam |
| N=C(N)NCCc1nnc([C@@H]2CC[C@@H]3CN2C(=O)N3OS(=O)(=O)O)o1 [Compound 705, (2S,5R)-2-(5-(2-guanidinoethyl)-1,3,4-oxadiazol-2-yl)-7-oxo-1,6-diazabicyclo[3.2.1]octan-6-yl hydrogen sulfate] | more active than Avibactam | more active than Avibactam |
| NC(=O)c1nnc([C@@H]2CC[C@@H]3CN2C(=O)N3OS(=O)(=O)O)o1 [Compound 706, (2S,5R)-2-(5-carbamoyl-1,3,4-oxadiazol-2-yl)-7-oxo-1,6-diaza-bicyclo[3.2.1]octan-6-yl hydrogen sulfate] | more active than Avibactam | more active than Avibactam |
| O=C1N2C[C@@H](CC[C@H]2c2nnc(C3CNC3)o2)N1OS(=O)(=O)O [Compound 708, (2S,5R)-2-(5-(azetidin-3-yl)-1,3,4-oxadiazol-2-yl)-7-oxo-1,6-diazabicyclo[3.2.1]octan-6-yl hydrogen sulfate] | more active than Avibactam | more active than Avibactam |
| N=C(N)N1CC(c2nnc([C@@H]3CC[C@@H]4CN3C(=O)N4OS(=O)(=O)O)o2)C1 [Compound 709, (2S,5R)-2-(5-(1-carbamimidoylazetidin-3-yl)-1,3,4-oxadiazol-2-yl)-7-oxo-1,6-diazabicyclo[3.2.1]octan-6-yl hydrogen sulfate] | more active than Avibactam | more active than Avibactam |
| O=C1N2C[C@@H](CC[C@H]2c2nnc(C3CCNC3)o2)N1OS(=O)(=O)O (stereo partly drawn) [Compound 710, (2S,5R)-7-oxo-2-(5-(pyrrolidin-3-yl)-1,3,4-oxadiazol-2-yl)-1,6-diazabicyclo[3.2.1]octan-6-yl hydrogen sulfate] | more active than Avibactam | more active than Avibactam |
| O=C1N2C[C@@H](CC[C@H]2c2nnc(C3CCNCC3)o2)N1OS(=O)(=O)O [Compound 711, (2S,5R)-7-oxo-2-(5-(piperidin-4-yl)-1,3,4-oxadiazol-2-yl)-1,6-diazabicyclo[3.2.1]octan-6-yl hydrogen sulfate] | more active than Avibactam | more active than Avibactam |
| NCCCc1nnc([C@@H]2CC[C@@H]3CN2C(=O)N3OS(=O)(=O)O)o1 [Compound 720, (2S,5R)-2-(5-(3-aminopropyl)-1,3,4-oxadiazol-2-yl)-7-oxo-1,6-diazabicyclo[3.2.1]octan-6-yl hydrogen sulfate] | more active than Avibactam | more active than Avibactam |
| N=C(N)NCc1nnc([C@@H]2CC[C@@H]3CN2C(=O)N3OS(=O)(=O)O)s1 [Compound 721, (2S,5R)-2-(5-(guanidinomethyl)-1,3,4-thiadiazol-2-yl)-7-oxo-1,6-diazabicyclo[3.2.1]octan-6-yl hydrogen sulfate] | more active than Avibactam | more active than Avibactam |
| CNCCc1nnc([C@@H]2CC[C@@H]3CN2C(=O)N3OS(=O)(=O)O)o1 [Compound 722, (2S,5R)-2-(5-(2-(methylamino)ethyl)-1,3,4-oxadiazol-2-yl)-7-oxo-1,6-diazabicyclo[3.2.1]octan-6-yl hydrogen sulfate] | more active than Avibactam | more active than Avibactam |
| N=C(N)NCC1(c2nnc([C@@H]3CC[C@@H]4CN3C(=O)N4OS(=O)(=O)O)o2)CC1 [Compound 723, (2S,5R)-2-(5-(1-(guanidinomethyl)cyclopropyl)-1,3,4-oxadiazol-2-yl)-7-oxo-1,6-diazabicyclo[3.2.1]octan-6-yl hydrogen sulfate] | more active than Avibactam | more active than Avibactam |
| NC1(Cc2nnc([C@@H]3CC[C@@H]4CN3C(=O)N4OS(=O)(=O)O)o2)CC1 [Compound 724, (2S,5R)-2-(5-((1-aminocyclopropyl)methyl)-1,3,4-oxadiazol-2-yl)-7-oxo-1,6-diazabicyclo[3.2.1]octan-6-yl hydrogen sulfate] | more active than Avibactam | more active than Avibactam |
| O=C1N2C[C@@H](CC[C@H]2c2nnc(CNC3CNC3)o2)N1OS(=O)(=O)O [Compound 726, (2S,5R)-2-(5-((azetidin-3-ylamino)methyl)-1,3,4-oxadiazol-2-yl)-7-oxo-1,6-diazabicyclo[3.2.1]octan-6-yl hydrogen sulfate] | more active than Avibactam | more active than Avibactam |
| N[C@H]1C[C@H](c2nnc([C@@H]3CC[C@@H]4CN3C(=O)N4OS(=O)(=O)O)o2)C1 [Compound 727, (2S,5R)-2-(5-((1r,3S)-3-aminocyclobutyl)-1,3,4-oxadiazol-2-yl)-7-oxo-1,6-diazabicyclo[3.2.1]octan-6-yl hydrogen sulfate] | more active than Avibactam | more active than Avibactam |
| NC1CCN(CCc2nnc([C@@H]3CC[C@@H]4CN3C(=O)N4OS(=O)(=O)O)o2)CC1 [Compound 775, (2S,5R)-2-(5-(2-(4-aminopiperidin-1-yl)ethyl)-1,3,4-oxadiazol-2-yl)-7-oxo-1,6-diazabicyclo[3.2.1]octan-6-yl hydrogen sulfate] | more active than Avibactam | – |
